Results from patent US20260008746A1, “CATIONIC LIPID COMPOUND WITH HIGH EFFICIENCY, LOW TOXICITY AND STABLE EXPRESSION, AND COMPOSITION COMPRISNG SAME” (HANGZHOU TIANLONG PHARMACEUTICAL CO., LTD, priority 2023, published 2026).

Columns and labels:
293T cells [1] = experiment: Fluorescent detection of Fluc-mRNA (cell transfection efficiency of LNP formulations); assay type: cell-based; conditions: for Relative light unit (RLU): LNP formulation containing 0.3 μg Fluc-mRNA, 96-well plate, 24 hours; for Multiples (YK-101): RLU of YK-101 / RLU of named substance; for Multiples (YK-107): RLU of YK-107 / RLU of named substance; for Multiples (YK-108): RLU of YK-108 / RLU of named substance; for fluorescence absorption value, times that of HHMA: RLU of named substance / RLU of HHMA; for fluorescence absorption value, times that of Lipofectamine 3000: RLU of named substance / RLU of Lipofectamine 3000; for Ratio relative to SM-102: RLU of named substance / RLU of SM-102; for Fluc-mRNA expression signal intensity, times that of compound 21: RLU of named substance / RLU of compound 21; for fluorescence absorption value, times that of compound 23: RLU of named substance / RLU of compound 23
Procedure: (§1) Cell recovery and passage: 293T cells were recovered, cultured in a culture dish, and passaged to the required number of cells.
(§2) Seeding plate: The cells in the culture dish were digested and counted. Cells were spread in a 96-well plate at 10,000 cells per well and in a 12-well plate at 150,000 cells per well. Cells were cultured overnight until the cells adhered to the wall.
Cell recovery and passage: the method was the same as in Example 3.
Seeding plate: the method was the same as in Example 3.
An LNP formulation containing 0.3 μg of Fluc-mRNA (the carrier components of the LNP formulation were cationic lipid, neutral lipid, structured lipid and polymer-conjugated lipid with a molar ratio of 49:10:39.5:1.5, wherein the cationic lipid was listed in Table 1) was added to the cell culture medium of a 96-well plate, and further incubated for 24 hours. The corresponding reagent was added according to the instructions of the Gaussia Luciferase Assay Kit, and the fluorescence expression intensity of each well was detected by an IVIS fluorescence detection system. This test verified the transfection efficiencies of LNP formulations in cells, see Tables 3-6 for specific test results.

293T cells [2] = experiment: Cell survival rate determination (CCK-8); assay type: cell-based; conditions: for Cell survival rate (%): LNP formulation containing 1.5 μg Fluc-mRNA, 24 hours, CCK-8, absorbance at 450 nm; for cell survival rate lower than that of YK-101: cell survival rate of YK-101 minus that of named substance; for cell survival rate lower than that of YK-107: cell survival rate of YK-107 minus that of named substance; for cell survival rate lower than that of YK-108: cell survival rate of YK-108 minus that of named substance
Procedure: as §1, §2
An LNP formulation containing 1.5 μg of Fluc-mRNA (the cater component of the LNP formulation were cationic lipid, neutral lipid, structured lipid and polymer-conjugated lipid with a molar ratio of 49: 10: 39.5: 1.5, wherein the cationic lipid was listed in Table 1) and the formulation of Lipofectamine 3000 were added to the cell culture medium of a 96-well plate, and further cultivated for 24 hours. 10 μL of CCK-8 solution was then added to each well, and the culture plate was incubated in an incubator for 1 hour. The absorbance at 450 nm was measured by a microplate reader.

BALB/C mice = experiment: In vivo imaging of Fluc-mRNA expression in mice delivered by LNP formulations; conditions: for average radiation intensity, 6 h / average radiation intensity, 24 h / average radiation intensity, 48 h / average radiation intensity, 7 d: LNP containing 10 pg Fluc-mRNA, intramuscular, female BALB/C mice
Procedure: The LNP formulation containing […] Fluc-mRNA was injected intramuscularly into female BALB/C mice aged 4-6 weeks old and weighed 17-19 g, and the mice were intraperitoneally injected with fluorescent imaging substrate at specific time points after administration (6h, 24 h, 48h and 7d), where the mice were allowed to move freely for 5 minutes, and then the average radiation intensity (corresponding to fluorescence expression intensity) of the protein expression of the mRNA carried by the LNP in the mice was detected by the IVIS Spectrum small animal in vivo imaging device. The test results are shown in Tables 11 to 14 and FIGS. 12 to 14.

[3] = highest multiple, time point not stated

Row | Structure (SMILES) | Relative light unit (RLU) (293T cells [1]) | Multiples (YK-101) (293T cells [1]) | Multiples (YK-107) (293T cells [1]) | Multiples (YK-108) (293T cells [1]) | Ratio relative to SM-102 (293T cells [1]) | Cell survival rate (%) (293T cells [2]) | cell survival rate lower than that of YK-101 (293T cells [2]) [%] | cell survival rate lower than that of YK-107 (293T cells [2]) [%] | cell survival rate lower than that of YK-108 (293T cells [2]) [%] | average radiation intensity of YK-101, times that of named substance (BALB/C mice; 6 h) [times] | average radiation intensity of YK-107, times that of named substance (BALB/C mice; 6 h) [times] | average radiation intensity of YK-108, times that of named substance (BALB/C mice; 6 h) [times] | average radiation intensity of YK-101, times that of named substance (BALB/C mice; 24 h) [times] | average radiation intensity of YK-107, times that of named substance (BALB/C mice; 24 h) [times] | average radiation intensity of YK-108, times that of named substance (BALB/C mice; 24 h) [times] | average radiation intensity of YK-101, times that of named substance (BALB/C mice; 48 h) [times] | average radiation intensity, 6 h (BALB/C mice; 6 h) | average radiation intensity, 24 h (BALB/C mice; 24 h) | average radiation intensity, 48 h (BALB/C mice; 48 h) | average radiation intensity, 7 d (BALB/C mice; 7 d) | also measured
1 | CCCCCCCCCCOC(=O)CCCN(CCCCCC(=O)OCCC(CCCCCC)CCCCCC)CC(O)CO (stereo not shown) [YK-114, 3-hexylnonyl 6-(4-(decyloxy)-4-oxobutyl)((2,3-dihydroxypropyl)amino)hexanoate] | 1418926 | 14.33 | 15.76 | 17.38 | 0.92 | 68.33 | 21.79 | 22.12 | 21.53 | 2.8 | 3.0 | 3.8 | 11.3 | 13.9 | 15.0 | 9.8 | 535760 | 93565 | 19004 | 5457 | fluorescence absorption value, times that of HHMA (293T cells [1]): 0.69 times; fluorescence absorption value, times that of Lipofectamine 3000 (293T cells [1]): 1.32 times; Fluc-mRNA expression signal intensity, times that of compound 21 (293T cells [1]): 1.02 times; fluorescence absorption value, times that of compound 23 (293T cells [1]): 1.10 times; average radiation intensity of YK-107, times that of named substance (BALB/C mice; 48 h): 11.9 times; average radiation intensity of YK-108, times that of named substance (BALB/C mice; 48 h): 12.1 times; average radiation intensity of YK-101, times that of named substance (BALB/C mice; 7 d): 2.2 times; average radiation intensity of YK-107, times that of named substance (BALB/C mice; 7 d): 2.4 times; average radiation intensity of YK-108, times that of named substance (BALB/C mice; 7 d): 2.6 times; expression amount of mRNA in mice of YK-101, times that of named substance (BALB/C mice; [3]): up to 11 times; expression amount of mRNA in mice of YK-107, times that of named substance (BALB/C mice; [3]): ≤ 13 times
2 | CCCCCCCCCCOC(=O)CCCN(CCCO)CCCCCC(=O)OCCC(CCCCCC)CCCCCC [YK-102, 3-hexylnonyl-6-(4-(decyloxy)-4-oxobutyl)((3-hydroxypropyl)amino)hexanoate] | 1464032 | 13.89 |  | 16.84 | 0.95 | 51.82 | 38.30 | 38.63 | 38.04 | 2.3 | 2.5 | 3.1 | 10.5 | 13.0 | 14.0 | 6.1 | 652680 | 100422 | 30507 | 6477 | average radiation intensity of YK-107, times that of named substance (BALB/C mice; 48 h): 7.4 times; average radiation intensity of YK-108, times that of named substance (BALB/C mice; 48 h): 7.6 times; average radiation intensity of YK-101, times that of named substance (BALB/C mice; 7 d): 1.9 times; average radiation intensity of YK-107, times that of named substance (BALB/C mice; 7 d): 2.1 times; average radiation intensity of YK-108, times that of named substance (BALB/C mice; 7 d): 2.2 times
3 | CCCCCCCCCCOC(=O)CCCN(CCCCCC(=O)OCCC(CCCCCC)CCCCCC)C1CCCC1O (stereo not shown) [YK-120, 3-hexylnonyl 6-(4-(decyloxy)-4-oxobutyl)((2-hydroxycyclopentyl)amino)hexanoate] | 1403572 | 14.49 | 15.93 | 17.57 | 0.91 | 73.43 | 16.69 | 17.02 | 16.43 | 2.7 | 2.9 | 3.6 | 11.1 | 13.7 | 14.8 | 8.9 | 559000 | 94779 | 20832 | 5052 | fluorescence absorption value, times that of HHMA (293T cells [1]): 0.69 times; fluorescence absorption value, times that of Lipofectamine 3000 (293T cells [1]): 1.31 times; Fluc-mRNA expression signal intensity, times that of compound 21 (293T cells [1]): 1.01 times; fluorescence absorption value, times that of compound 23 (293T cells [1]): 1.09 times; average radiation intensity of YK-107, times that of named substance (BALB/C mice; 48 h): 10.9 times; average radiation intensity of YK-108, times that of named substance (BALB/C mice; 48 h): 11.1 times; average radiation intensity of YK-101, times that of named substance (BALB/C mice; 7 d): 2.4 times; average radiation intensity of YK-107, times that of named substance (BALB/C mice; 7 d): 2.6 times; average radiation intensity of YK-108, times that of named substance (BALB/C mice; 7 d): 2.8 times
4 | CCCCCCCCC(CCCCCCCC)COC(=O)CCCCCN(CCO)CCCCCC(=O)OCCCSSCCCCC [YK-111] | 1328301 | 15.31 | 16.83 | 18.57 | 0.87 | 75.76 | 14.36 | 14.69 | 14.10 | 2.3 | 2.4 | 3.0 | 10.6 | 13.1 | 14.1 | 9.2 | 661800 | 99777 | 20312 | 5050 | cell transfection efficiency, times that of YK-110 (293T cells [1]): 5 times; fluorescence absorption value, times that of HHMA (293T cells [1]): 0.65 times; fluorescence absorption value, times that of Lipofectamine 3000 (293T cells [1]): 1.24 times; Fluc-mRNA expression signal intensity, times that of compound 21 (293T cells [1]): 0.96 times; fluorescence absorption value, times that of compound 23 (293T cells [1]): 1.03 times; average radiation intensity of YK-107, times that of named substance (BALB/C mice; 48 h): 11.1 times; average radiation intensity of YK-108, times that of named substance (BALB/C mice; 48 h): 11.3 times; average radiation intensity of YK-101, times that of named substance (BALB/C mice; 7 d): 2.4 times; average radiation intensity of YK-107, times that of named substance (BALB/C mice; 7 d): 2.6 times; average radiation intensity of YK-108, times that of named substance (BALB/C mice; 7 d): 2.8 times
5 | CCCCCCCCCCCOC(=O)CCCN(CCO)CCCCCCC(=O)OCCC(CCCCCC)CCCCCC [YK-108, 3-hexylnonyl 7-(4-(undecyloxy)-4-oxobutyl)((2-hydroxyethyl)amino)heptanoate] | 24660507 | 0.82 | 0.91 | 1.00 | 16.07 | 89.86 |  |  |  |  |  |  |  |  |  |  | 2017280 | 1406010 | 230360 | 14194 | 
